Tested on: PKC mediated IL-2 production
Assay: IL-2 ELISA, human primary T cell, anti CD3+CD28+
Type: cell-based
Details: human primary T cells stimulated with αCD3 and αCD28, 24 hours
Method: Compounds 1-328 were tested in a whole cell functional assay for PKC mediated IL-2 production as follows. Human primary T cell isolation and culture: Human primary T cells were prepared as follows. Whole blood was obtained from a healthy volunteer, mixed 1:1 with PBS, layered on to Ficoll Hypaque (Amersham Pharmacia Biotech, Piscataway, N.J., Catalog #17-1440-03) in 2:1 blood/PBS:ficoll ratio and centrifuged for 30 minutes at 4° C. at 1750 rpm. The cells at the serum: ficoll interface were recovered and washed twice with 5 volumes of PBS. These freshly isolated human peripheral blood mononuclear cells were cultured in Yssel's medium containing 40 U/ml IL2 in a flask pre-coated with […] αCD3 and 5 μg/ml αCD28 (Anti-Human CD3, BD Pharmingen Catalog #555336, Anti-Human CD28, Beckman Coulter Catalog #IM1376). The cells were stimulated for 3-4 days, then transferred to a fresh flask and maintained in RPMI (RPMI-1640 with L-Glutamine; Mediatech, Inc., Herndon Va., cat. #10-040-CM) with 10% FBS and 40 U/ml IL-2. The primary T-cells were then washed twice with PBS to remove the IL-2.
Primary T cell stimulation and IL2 ELISA: Human primary T cells (100,000 cells per well) were pre-incubated with or without test compound in Yssel's medium for 1 hour at 37° C. Cells were then stimulated by transferring them to round-bottom 96-well plates pre-coated with […] αCD3 and 5 μg/ml αCD28. For counter assay, cells were instead stimulated by adding 8× stock solutions of PMA and ionomycin in Yssels (for final concentrations of 0.5 ng/ml PMA and 0.1 uM ionomycin, both from Calbiochem). Cells were incubated at 37° C. for 24 hours before 100 μL supernatants were harvested for quantification of IL-2 by ELISA using Human IL-2 Duoset ELISA Kit from R and D Systems, Cat. # DY202E.

Row | SMILES | EC50 (Homo sapiens, T-cell, 24 h) [nM] | EC50 [nM]
1 | CC1(C)C[C@H](Nc2nc(Nc3ccc(OCCO)c(F)c3)ncc2F)C[C@@H]2CCCN21 [Compound 130, 2-(4-((4-(((7R,8aS)-5,5-dimethyloctahydroindolizin-7-yl)amino)-5-fluoropyrimidin-2-yl)amino)-2-fluorophenoxy)ethan-1-ol] | 500 to 1000 | –
2 | CC1(C)CC(Nc2nc(Nc3ccc(OC4CCOCC4)c(C#N)c3)ncc2F)CC2CCCN21 (stereo not shown) [Compound 41, 5-(5-fluoro-4-(octahydro-5,5-dimethylindolizin-7-ylamino)pyrimidin-2-ylamino)-2-(tetrahydro-2H-pyran-4-yloxy)benzonitrile] | 100 to 500 | –
3 | Cn1nnn(-c2cc(Nc3ncc(C#N)c(N[C@@H]4C[C@@H]5CCCN5C(C)(C)C4)n3)c(F)cc2C2CC2)c1=O (racemic) [Compound 66, 4-((R/S,S/R)-Octahydro-5,5-dimethylindolizin-7-ylamino)-2-(4-cyclopropyl-2-fluoro-5-(4,5-dihydro-4-methyl-5-oxotetrazol-yl)phenylamino) pyrimidine-5-carbonitrile] | < 100 | –
4 | COc1cc(Nc2ncc(F)c(N[C@H]3C[C@H]4CCCN4C(C)(C)C3)n2)cc(-n2nnnc2C)c1 (single isomer, unassigned) [Compound 11, (R/S, S/R, R/R, S/S)-5-fluoro-N4-(octahydro-5,5-dimethylindolizin-7-yl)N2-(3-methoxy-5-(5-methyl-1H-tetrazol-1-yl)phenyl)pyrimidine-2,4-diamine] | – | 1000 to 10000
5 | CC1(C)Oc2ccc(Nc3ncc(F)c(N[C@@H]4C[C@H]5CCCN5C(C)(C)C4)n3)cc2-n2nnnc21 [Compound 2, N2-(4,4-dimethyl-4H-benzo[b]tetrazolo[1,5-d][1,4]oxazin-8-yl)-5-fluoro-N4-(octahydro-5,5-dimethylindolizin-7-amine)pyrimidine-2,4-diamine] | – | < 100
6 | CC1(C)C[C@H](Nc2nc(Nc3ccc(N4CCC(O)CC4)c(C#N)c3)ncc2F)C[C@@H]2CCCN21 [Compound 107, 5-((4-(((7R,8aS)-5,5-dimethyloctahydroindolizin-7-yl)amino)-5-fluoropyrimidin-2-yl)amino)-2-(4-hydroxypiperidin-1-yl)benzonitrile] | 100 to 500 | –
7 | CC1(C)C[C@H](Nc2nc(Nc3ccc(O)c(-n4cnnn4)c3)ncc2F)C[C@@H]2CCCN21 [Compound 196, 4-((4-(((7R,8aS)-5,5-dimethyloctahydroindolizin-7-yl)amino)-5-fluoropyrimidin-2-yl)amino)-2-(1H-tetrazol-1-yl)phenol] | 100 to 500 | –
8 | Cn1nc2n(c1=O)-c1cc(Nc3ncc(F)c(N[C@@H]4C[C@@H]5CCCN5C(C)(C)C4)n3)ccc1OC2 [Compound 291, 5-fluoro-N2-(1H-2,4-dihydron-2-methyl-[1,2,4]triazolo[3,4-c][1,4]benzoxazin-1-one-8-yl)-N4-((7R,8aS)-octahydro-5,5-dimethylindolizin-7-yl)pyrimidine-2,4-diamine] | 100 to 500 | –
9 | Cn1nnn(-c2cc(Nc3ncc(F)c(N[C@@H]4C[C@@H]5CCCN5C(C)(C)C4)n3)c(F)cc2OC(C)(C)CO)c1=O [Compound 85, 1-(2-(1-hydroxy-2-methylpropan-2-yloxy)-5-(4-((7R,8aS)-octahydro-5,5-dimethylindolizin-7-ylamino)-5-fluoropyrimidin-2-ylamino)-4-fluorophenyl)-4-methyl-1H-tetrazol-5(4H)-one] | 100 to 500 | –
10 | CC1(C)Oc2ccc(Nc3ncc(F)c(N[C@H]4C[C@@H]5CCCN5C(C)(C)C4)n3)cc2-n2nnnc21 (single isomer, unassigned) [Compound 3, N2-(4,4-dimethyl-4H-benzo[b]tetrazolo[1,5-d][1,4]oxazin-8-yl)-5-fluoro-N4-(octahydro-5,5-dimethylindolizin-7-amine)pyrimidine-2,4-diamine] | – | 500 to 1000
11 | Cn1nnn(-c2cc(Nc3ncc(F)c(NC4CC5CCCN5C(C)(C)C4)n3)ccc2OC2COC2)c1=O (stereo not shown) [Compound 40, 1-(5-(5-fluoro-4-(octahydro-5,5-dimethylindolizin-7-ylamino)pyrimidin-2-ylamino)-2-(oxetan-3-yloxy)phenyl)-4-methyl-1H-tetrazol-5(4H)-one] | < 100 | –
12 | Cn1nnn(-c2cc(Nc3ncc(F)c(N[C@@H]4CCN5[C@@H](CCC5(C)C)C4)n3)c(F)cc2C2CC2)c1=O (single isomer, unassigned) [Compound 36] | – | 1000 to 10000
13 | COc1ccc(Nc2ncc(F)c(N[C@@H]3C[C@@H]4CCCN4C(C)(C)C3)n2)cc1-n1nnn(C)c1=O [Compound 278, 1-(5-(4-((7R,8aS)-octahydro-5,5-dimethylindolizin-7-ylamino)-5-fluoropyrimidin-2-ylamino)-2-methoxyphenyl)-4-methyl-1H-tetrazol-5(4H)-one] | < 100 | –
14 | CC1(C)Oc2ccc(Nc3ncc(F)c(N[C@@H]4C[C@@H]5CCCN5C(C)(C)C4)n3)cc2-n2c1nn(CCO)c2=O [Compound 268, 5-fluoro-N2-(1H-2,4-dihydron-2-(2-hydroxyethyl)-4,4-dimethyl-[1,2,4]triazolo[3,4-c][1,4]benzoxazin-1-one-8-yl)-N4-((7R,8aS)-octahydro-5,5-dimethylindolizin-7-yl)pyrimidine-2,4-diamine] | 1000 to 10000 | –
15 | CC(C)N1CCC(Oc2ccc(Nc3ncc(F)c(N[C@@H]4C[C@@H]5CCCN5C(C)(C)C4)n3)cc2OC(F)F)CC1 (single isomer, unassigned) [Compound 10, (R/S, S/R, R/R, S/S)-N^2-(4-(1-isopropylpiperidin-4-yloxy)-3-(difluoromethoxy)phenyl)-5-fluoro-N^4-(octahydro-5,5-dimethylindolizin-7-yl)pyrimidine-2,4-diamine] | – | 100 to 500
16 | CC1(C)CC(Nc2nc(Nc3ccc(O[C@H]4CCOC4)c(C#N)c3)ncc2F)CC2CCCN21 (single isomer, unassigned) [Compound 61] | – | 500 to 1000
17 | CC1(C)C[C@H](Nc2nc(Nc3cc(-n4nnnc4C4CC4)c(OC4COC4)cc3F)ncc2F)C[C@@H]2CCCN21 [Compound 255, N2-(5-(5-cyclopropyl-1H-tetrazol-1-yl)-2-fluoro-4-(oxetan-3-yloxy)phenyl)-5-fluoro-N4-((7R,8aS)-octahydro-5,5-dimethylindolizin-7-yl)pyrimidine-2,4-diamine] | < 100 | –
18 | Cn1nnn(-c2cc(Nc3ncc(F)c(N[C@@H]4C[C@@H]5CCCN5C(C)(C)C4)n3)c(F)cc2OC[C@H](O)CO)c1=O [Compound 188, 1-(2-((R)-2,3-dihydroxypropoxy)-5-((4-(((7R,8aS)-5,5-dimethyloctahydroindolizin-7-yl)amino)-5-fluoropyrimidin-2-yl)amino)-4-fluorophenyl)-4-methyl-1,4-dihydro-5H-tetrazol-5-one] | 500 to 1000 | –
19 | COc1ccc(Nc2ncc(F)c(N[C@@H]3C[C@@H]4CCCN4C(C)(C)C3)n2)cc1-n1nnn(CCO)c1=O [Compound 280, 1-(5-(4-((7R,8aS)-octahydro-5,5-dimethylindolizin-7-ylamino)-5-fluoropyrimidin-2-ylamino)-2-methoxyphenyl)-4-(2-hydroxyethyl)-1H-tetrazol-5(4H)-one] | 500 to 1000 | –
20 | Cc1ccc(Nc2ncc(Cl)c(N[C@@H]3C[C@@H]4CCCN4C(C)(C)C3)n2)cc1C#N [Compound 154, 5-((5-chloro-4-(((7R,8aS)-5,5-dimethyloctahydroindolizin-7-yl)amino)pyrimidin-2-yl)amino)-2-methylbenzonitrile] | < 100 | –
21 | COc1cc(Nc2ncc(F)c(N[C@@H]3C[C@@H]4CCCN4C(C)(C)C3)n2)ccc1OCCO [Compound 216, 2-(4-((4-(((7R,8aS)-5,5-dimethyloctahydroindolizin-7-yl)amino)-5-fluoropyrimidin-2-yl)amino)-2-methoxyphenoxy)ethan-1-ol] | > 10000 | –
22 | CC1(C)C[C@H](Nc2nc(Nc3cccc(-n4nn[nH]c4=O)c3)ncc2F)C[C@@H]2CCCN21 [Compound 260, 1-(3-(4-((7R,8aS)-octahydro-5,5-dimethylindolizin-7-ylamino)-5-fluoropyrimidin-2-ylamino)phenyl)-1H-tetrazol-5(4H)-one] | > 10000 | –
23 | Cc1ncc(Nc2ncc(F)c(NC3CC4CCCN4C(C)(C)C3)n2)cc1-n1nnnc1C (stereo not shown) [Compound 15] | – | 100 to 500
24 | CC1(C)C[C@H](Nc2nc(Nc3cc(-n4nnnc4C4CC4)ccc3F)ncc2Cl)C[C@@H]2CCCN21 [Compound 164, 5-chloro-N2-(5-(5-cyclopropyl-1H-tetrazol-1-yl)-2-fluorophenyl)-N4-((7R,8aS)-5,5-dimethyloctahydroindolizin-7-yl)pyrimidine-2,4-diamine] | < 100 | –
25 | Cn1nnn(-c2cc(Nc3ncc(F)c(N[C@H]4C[C@@H]5CCC(=O)N5C(C)(C)C4)n3)c(F)cc2C2CC2)c1=O (racemic) [Compound 32, 1-(5-(5-fluoro-4-(hexahydro-5,5-dimethylindolizin-3(5H)-one-7-ylamino)pyrimidin-2-ylamino)-2-cyclopropyl-4-fluorophenyl)-4-methyl-1H-tetrazol-5(4H)-one] | 1000 to 10000 | –
